Source: patent US20040191297A1, “Carotenoid formulation” (priority 1997, published 2004)

How the values were obtained:
[1] = Carotenoid content of Lycopene Suspension-supplemented diets after 7 months storage; format: physicochemical; conditions: for Carotenoid content of diet: stored at −20 °C for 7 months
Method: When the Lycopene Suspension (Henkel Corporation, La Grange, Ill.) was extracted by organic extraction methods, the major carotenoid was lycopene, but a number of other carotenoids were known to be present in tomatoes, α- and β-Carotene, phytofluene and phytoene were also present (FIGS. 6 & 7). The quantitative profile of carotenoids in the Lycopene Suspension was carried out using an HPLC system as described above, equipped with a photodiode array detector. The six major components can be seen in Table 7.
(Table 10). Note that all the major carotenoids plus the lycopene metabolite present in the Lycopene Suspension are present in the diets in the same relative proportions. However, the net loss of lycopene over 7 months was 66%, 38%, 40%, 44% and 60%, in treatment groups 1-5, respectively; in contrast, β-carotene concentrations declined by only 10% of original values over the same time period.

[2] = Carotenoid content of livers of rats fed supplemented diets
Method: Breast, liver and prostate tissue contain lipids which interfere with the assay. Consequently, a saponification step was required prior to organic extraction. Tissue was homogenized in 20 ml methanol to which echinenone was added as internal standard. For breast tissue, which comprise of 85% adipocytes, 8.0 ml 50% NaOH and 4.0 ml 25% sodium ascorbate was added and the mixture was homogenized. For prostate and liver tissue, which contain less lipid, 4.0 ml and 50% NaOH. and 2.0 ml sodium ascorbate were added and the mixture was
homogenized. Saponification was carried out in 50 ml tubes saturated with N2 gas overnight in a temperature controlled shaker bath at 30° C. Following saponification, 10 ml hexane was add d to each tube and vortexed for 1 minute. The mixture was then centrifuged at 2000 rpm for 10 min at 4° C. and the hexane layer was decanted and saved. This hexane extraction procedure was repeated 5-7 times. The pooled hexane extract was then dried under N2 gas at 60° C., dissolved in injection solvent and analyzed by HPLC. Lung and colon tissue were processed in an identical manner with the exception that the saponification step was omitted.

[3] = female rats, Diet 1, 2.5 mM/kg diet
[4] = female rats, Diet 2, 1.0 mM/kg diet
[5] = female rats, Diet 3, 0.5 mM/kg diet
[6] = female rats, Diet 4, 0.25 mM/kg diet
[7] = female rats, Diet 5, 0.10 mM/kg diet
[8] = male rats, Diet 1, 2.5 mM/kg diet
[9] = male rats, Diet 2, 1.0 mM/kg diet
[10] = male rats, Diet 3, 0.5 mM/kg diet
[11] = male rats, Diet 5, 0.10 mM/kg diet

SMILES | Carotenoid content of diet ([1]; Diet 1, 2.5 mM/kg diet) | Carotenoid content of diet ([1]; Diet 2, 1.0 mM/kg diet) | Carotenoid content of diet ([1]; Diet 3, 0.5 mM/kg diet) | Carotenoid content of diet ([1]; Diet 4, 0.25 mM/kg diet) | Carotenoid content of diet ([1]; Diet 5, 0.10 mM/kg diet) | Carotenoid content of liver [2, 3] | Carotenoid content of liver [2, 4] | Carotenoid content of liver [2, 5] | Carotenoid content of liver [2, 6] | Carotenoid content of liver [2, 7] | Carotenoid content of liver [2, 8] | Carotenoid content of liver [2, 9] | Carotenoid content of liver [2, 10] | Carotenoid content of liver ([2]; male rats, Diet 4, 0.25 mM/kg diet) | Carotenoid content of liver [2, 11] | decline of concentration from original values ([1]; diets, 7 months storage) [%]
CC(C)=CCC/C(C)=C/C=C/C(C)=C/C=C/C(C)=C/C=C/C=C(C)/C=C/C=C(C)/C=C/C1C(C(C)(C)O)CCC1(C)O (stereo not drawn) [2,6 cyclolycopene-1,5-diol] | 2 μg/gm (ppm) | 1.4 μg/gm (ppm) | 0.76 μg/gm (ppm) | 0.46 μg/gm (ppm) | 0.14 μg/gm (ppm) | 9 μg/gm (ppm) | 5 μg/gm (ppm) | 7 μg/gm (ppm) | 4 μg/gm (ppm) | 6 μg/gm (ppm) | 4 μg/gm (ppm) | .39 μg/gm (ppm) | 4 μg/gm (ppm) | .28 μg/gm (ppm) | .34 μg/gm (ppm) | –
CC(C)=CCC/C(C)=C/CC/C(C)=C/CC/C(C)=C/C=C/C=C(\C)CC/C=C(\C)CC/C=C(\C)CCC=C(C)C [Phytoene] | 70 μg/gm (ppm) | 23 μg/gm (ppm) | 0.32 μg/gm (ppm) | 5 μg/gm (ppm) | 1 μg/gm (ppm) | 66 μg/gm (ppm) | 35 μg/gm (ppm) | 40 μg/gm (ppm) | 46 μg/gm (ppm) | 38 μg/gm (ppm) | 23 μg/gm (ppm) | 4 μg/gm (ppm) | 21 μg/gm (ppm) | – | 10 μg/gm (ppm) | –
CC(C)=CCC/C(C)=C/CC/C(C)=C/C=C/C(C)=C/C=C/C=C(\C)CC/C=C(\C)CC/C=C(\C)CCC=C(C)C [Phytofluene] | 58 μg/gm (ppm) | 28 μg/gm (ppm) | 14 μg/gm (ppm) | 8 μg/gm (ppm) | 2 μg/gm (ppm) | 106 μg/gm (ppm) | 48 μg/gm (ppm) | 50 μg/gm (ppm) | 46 μg/gm (ppm) | 33 μg/gm (ppm) | 30 μg/gm (ppm) | 5 μg/gm (ppm) | 34 μg/gm (ppm) | – | 10 μg/gm (ppm) | –

Results, then the molecule that gave them:

Carotenoid content of diet ([1]; Diet 1, 2.5 mM/kg diet) | Carotenoid content of diet ([1]; Diet 2, 1.0 mM/kg diet) | Carotenoid content of diet ([1]; Diet 3, 0.5 mM/kg diet) | Carotenoid content of diet ([1]; Diet 4, 0.25 mM/kg diet) | Carotenoid content of diet ([1]; Diet 5, 0.10 mM/kg diet) | Carotenoid content of liver [2, 3] | Carotenoid content of liver [2, 4] | Carotenoid content of liver [2, 5] | Carotenoid content of liver [2, 6] | Carotenoid content of liver [2, 7] | Carotenoid content of liver [2, 8] | Carotenoid content of liver [2, 9] | Carotenoid content of liver [2, 10] | Carotenoid content of liver ([2]; male rats, Diet 4, 0.25 mM/kg diet) | Carotenoid content of liver [2, 11] | decline of concentration from original values ([1]; diets, 7 months storage) [%] | SMILES
1 μg/gm (ppm) | 9 μg/gm (ppm) | 4 μg/gm (ppm) | 2 μg/gm (ppm) | 0 μg/gm (ppm) | – | – | – | – | – | – | – | – | – | – | – | CC(C)=CCC/C(C)=C/CC/C(C)=C/C=C/C(C)=C/C=C/C=C(C)/C=C/C=C(\C)CC/C=C(\C)CCC=C(C)C [zeta-carotene]
284 μg/gm (ppm) | 138 μg/gm (ppm) | 69 μg/gm (ppm) | 37 μg/gm (ppm) | 8 μg/gm (ppm) | – | – | – | – | – | – | – | – | – | – | 10 | CC1=C(/C=C/C(C)=C/C=C/C(C)=C/C=C/C=C(C)/C=C/C=C(C)/C=C/C2=C(C)CCCC2(C)C)C(C)(C)CCC1 [β-carotene]
